The values below are quoted from earlier work in patent US20010033859A1, “Transdermal therapeutic system for delivery of dofetilide” (priority 2000, published 2001).

For the data set the following is noted: stated as a property of the drug substance; solvent system not given.

In the case of `CN(CCOc1ccc(NS(C)(=O)=O)cc1)CCc1ccc(NS(C)(=O)=O)cc1` [dofetilide, N-[4-[2-[methyl[2-[4-[(methylsulfonyl)amino]phenoxy]ethyl]amino]ethyl]phenyl]-methanesulfonamide], the partition coefficient entry is on record as “about 1”.
